Data from patent US8835632B2, “Methods to increase the photostability of dyes” (The University of North Carolina at Chapel Hill, priority 2007, dated 2014).

Key:
Type in all cases: physicochemical
[1] = Absorption and fluorescence spectra, extinction coefficient, fluorescence quantum yield
Experimental: Absorption spectra were recorded on a Hewlett-Packard 8453 diode array UV-Vis spectrophotometer (Agilent Technologies, Inc., Santa Clara, Calif.), and fluorescence measurements were taken on a SPEX® Fluorolog 2 spectrofluorometer (HORIBA Jobin Yvon, Inc., Edison, N.J.). Melting points are not corrected. NMR spectra were obtained on a Varian Mercury 300 MHz (Varian, Inc., Palo Alto, Calif.) or on a Bruker 300 MHz DRX 300 spectrometer (Bruker Biospin Corp., Billerica, Mass.). Mass spectra were obtained on a Hewlett-Packard 1100 high-performance liquid chromatograph equipped with an 1100 mass selective detector (MS-ESI) (Agilent Technologies, Inc.).
With decreasing solvent polarity, the absorption maximum of dyes 1a-b, 2a-d shifted to longer wavelengths, and the intensity of the transition increased (Table 10, FIG. 11).
The SCRF/VSCRF predicted emission energies and the solute dipole moments before and after the vertical emission process are given in Table 16. The dipole moments of AI-BA(4) and AI-SO(4) are further decreased on the S1 surface after geometry relaxation (in MeOH solution), and then increased during the S1→S0 transition. This observation is consistent with the blue shifts of the emission bands of AI-BA(4) and AI-SO(4) with increasing solvent polarity from C6H6 to MeOH. By contrast, the dipole moment of I-SO further decreases after S1 state geometry relaxation, and then decreases during the vertical emission process. This observation also is in agreement with the red shift of the I-SO emission band with increasing solvent polarity from C6H6 to MeOH. Similarly to the absorption case, a negligible red shift (ΔEem=0.017 eV) was predicted for the emission band of I-TBA with increasing solvent polarity. A small red shift from C6H6 to DMF (with ΔEem=0.020 eV, or Δλmax=6 nm) is observed. The nearly equal emission energy observed in C6H6 and MeOH can again result in the explicit interactions between the solute and solvent molecules.

[2] = Photobleaching under constant illumination from a halogen tungsten lamp filtered through glass; conditions: MeOH
Description: The photostability of dyes can be important for applications in living cells. The mechanism of photobleaching for merocyanines of varying structure has been examined See Toutchkine et al., J. Am. Chem. Soc. 125:4132-4145 (2003). The photostability of the presently disclosed dyes was characterized by exposing them to constant illumination from a halogen tungsten lamp filtered through glass. This broad spectrum light source provided essentially equal intensity throughout the spectral range where the dyes absorb and where they would be irradiated in vivo (about 600 nm to about 650 nm).

[3] = Relative rate of reaction with chemically generated singlet oxygen in DMSO; conditions: 2.5 mM, 1O2 from 1,4-dimethylnaphtalene-1,4-endoperoxide
Experimental: The bleaching rates for the dyes differed by two orders of magnitude. The relative rate constants kr (rel) for product formation during reaction with singlet oxygen were measured by comparing the percent conversions for dyes dissolved in DMSO containing a fixed amount of ^1O2 (2.5 mM solutions; ^1O2 generated by decomposition of 1,4-dimethylnaphtalene-1,4-endoperoxide). The rates were generally higher for dyes with a polar ground state (1a, 2a, 2b, 2d) than for the dyes with their ground state at the “cyanine limit” (3, 4). […] Olefins without allylic hydrogens react with singlet oxygen to form dioxetanes. Dioxetanes are unstable and decompose, to form two carbonyl compounds.

SMILES: Cn1c(O)c(/C=C/C=C(\C#N)c2cc[n+]3c(c2)C(C)(C)c2ccccc2-3)c(=O)n(C)c1=O [AI-BA-CN]
- Absorbance λmax ([1]; Butanol (BuOH)): 600 nm
- Emission λmax ([1]; Butanol (BuOH)): 620 nm
- Extinction coefficient ε ([1]; Butanol (BuOH)): 189000
- Fluorescence quantum yield Φ ([1]; Butanol (BuOH)): 0.25
- Absorbance λmax ([1]; Methanol (MeOH)): 589 nm
- Emission λmax ([1]; Methanol (MeOH)): 613 nm
- Extinction coefficient ε ([1]; Methanol (MeOH)): 180000
- Fluorescence quantum yield Φ ([1]; Methanol (MeOH)): 0.05
- Absorbance λmax ([1]; Water-Methanol (H2O—MeOH)): 578 nm
- Emission λmax ([1]; Water-Methanol (H2O—MeOH)): 607 nm
- Extinction coefficient ε ([1]; Water-Methanol (H2O—MeOH)): 123000
- Fluorescence quantum yield Φ ([1]; Water-Methanol (H2O—MeOH)): 0.15

SMILES: CC1(C)c2ccccc2-[n+]2ccc(/C=C/C3=C([O-])c4ccccc4S3(=O)=O)cc21 [AI-SO(2)]
- Observed absorption (ε) ([1]; Table 10, BuOH): (120000)
- Observed absorption λmax ([1]; Table 10, BuOH): 554 nm
- Observed absorption (ε) ([1]; Table 10, C6H6): (235000)
- Observed absorption λmax ([1]; Table 10, C6H6): 570 nm
- Observed absorption (ε) ([1]; Table 10, CH2Cl2): (218000)
- Observed absorption λmax ([1]; Table 10, CH2Cl2): 561 nm
- Observed absorption (ε) ([1]; Table 10, CH3CN): (149000)
- Observed absorption λmax ([1]; Table 10, CH3CN): 549 nm
- Observed absorption (ε) ([1]; Table 10, DMF): (157000)
- Observed absorption λmax ([1]; Table 10, DMF): 556 nm
- Observed absorption (ε) ([1]; Table 10, DMSO): (126000)
- Observed absorption λmax ([1]; Table 10, DMSO): 555 nm
- Observed absorption (ε) ([1]; Table 10, EtOH): (111000)
- Observed absorption λmax ([1]; Table 10, EtOH): 549 nm
- Observed absorption (ε) ([1]; Table 10, MeOH): (92000)
- Observed absorption λmax ([1]; Table 10, MeOH): 542 nm
- Observed absorption (ε) ([1]; Table 10, OcOH): (150000)
- Observed absorption λmax ([1]; Table 10, OcOH): 559 nm
- Observed absorption (ε) ([1]; Table 10, i-PrOH): (132000)
- Observed absorption λmax ([1]; Table 10, i-PrOH): 553 nm
- Observed emission (Φ) ([1]; Table 15, BuOH): 0.16
- Observed emission λmax ([1]; Table 15, BuOH): 567 nm
- Observed emission (Φ) ([1]; Table 15, C6H6): 0.02
- Observed emission λmax ([1]; Table 15, C6H6): 577 nm
- Observed emission (Φ) ([1]; Table 15, CH2Cl2): 0.06
- Observed emission λmax ([1]; Table 15, CH2Cl2): 571 nm
- Observed emission (Φ) ([1]; Table 15, CH3CN): 0.06
- Observed emission λmax ([1]; Table 15, CH3CN): 561 nm
- Observed emission (Φ) ([1]; Table 15, DMF): 0.16
- Observed emission λmax ([1]; Table 15, DMF): 567 nm
- Observed emission (Φ) ([1]; Table 15, DMSO): 0.24
- Observed emission λmax ([1]; Table 15, DMSO): 567 nm
- Observed emission (Φ) ([1]; Table 15, EtOH): 0.09
- Observed emission λmax ([1]; Table 15, EtOH): 563 nm
- Observed emission (Φ) ([1]; Table 15, MeOH): 0.05
- Observed emission λmax ([1]; Table 15, MeOH): 561 nm
- Observed emission (Φ) ([1]; Table 15, OcOH): 0.21
- Observed emission λmax ([1]; Table 15, OcOH): 569 nm
- Observed emission (Φ) ([1]; Table 15, i-PrOH): 0.13
- Observed emission λmax ([1]; Table 15, i-PrOH): 565 nm
- kph * 10^6 (absolute rate of photobleaching) [2]: 0.7 s^−1
- kph(rel) (relative rate of photobleaching) ([2]; with respect to standard I-TBA in MeOH): 2.1
- kr(rel) (relative rate constants for product formation during reaction with singlet oxygen produced chemically) [3]: 20.3

SMILES: Cn1c(O)c(/C=C/C=C/c2cc[n+]3c(c2)C(C)(C)c2ccccc2-3)c(=O)n(C)c1=O [AI-BA]
- Absorbance λmax ([1]; Butanol (BuOH)): 615 nm
- Emission λmax ([1]; Butanol (BuOH)): 654 nm
- Extinction coefficient ε ([1]; Butanol (BuOH)): 154000
- Fluorescence quantum yield Φ ([1]; Butanol (BuOH)): 0.29
- Absorbance λmax ([1]; Methanol (MeOH)): 585 nm
- Emission λmax ([1]; Methanol (MeOH)): 618 nm
- Extinction coefficient ε ([1]; Methanol (MeOH)): 83000
- Fluorescence quantum yield Φ ([1]; Methanol (MeOH)): 0.52
